Experimental data: US20230212510A1, “METHODS FOR ORGANOIDS PRODUCTION” (CITY OF HOPE, priority 2020, published 2023)
Entries after “also recorded” stand apart in the source; their conditions may differ. Read-outs that look alike come from different tables or passages of the source.

How the values were obtained:
Format in all cases: cell-based, human
[1] = tested on: HMEC organoids in microcontainers; test: Inhibitor treatment of contractile mammary organoids, contractions counted by time-lapse microscopy; settings: for effect on contractions (FIG. 5H legend): 2 μM
Procedure: Contraction temporal analysis: Organoid contractions were quantified either by hand or by brightness change analysis, as indicated. For brightness change analysis, time-lapse movies were taken, and the time-derivative of the whole-field image brightness was calculated. Local maxima in the time-derivative were interpreted as contractions and spot-checked by eye.
Contractile function implies the presence of contractility-associated structural proteins. […] The association between contractility and ASMA expression was tested with inhibitor experiments. Contractile organoids were treated with either latrunculin B or jasplakinolide, inhibitors of cytoskeleton dynamics that either promote or inhibit actin polymerization, […]. […] Next, organoids were treated with ML-7, an inhibitor of the smooth muscle myosin light-chain kinase that interacts with ASMA.

estrogen receptor = test: Attempted induction of estrogen receptor expression, immunofluorescence; settings: 25 μM RepSox and 10 μM SB431542 together; drugs maintained, withdrawn, or cells mixed 1:10 with undrugged cells
[2] = tested on: HMEC organoids in microcontainers; test: Interventions to alter organoid contraction kinetics (withdrawing media factors, adding matrix)
[3] = tested on: HMEC organoids in microcontainers; test: Prolactin treatment of organoids, luminal functional differentiation (morphology, Sudan Black)

For `O=S(=O)(c1cccc2c(I)cccc12)N1CCCNCC1` [ML-7], the inhibition of contractions ([1]; 2 μM ML-7, FIG. 5I) was “Partial inhibition” and the “effect on contractions (FIG. 5I legend)” value ([1]; n=59 organoids) was “prevented contractions”.

For `Cc1cccc(-c2[nH]ncc2-c2ccc3ncccc3n2)n1` [RepSox], the “estrogen receptor expression by immunofluorescence” value (estrogen receptor) was “not detected”.

With `NC(=O)c1ccc(-c2nc(-c3ccc4c(c3)OCO4)c(-c3ccccn3)[nH]2)cc1` [SB431542] the “estrogen receptor expression by immunofluorescence” value (estrogen receptor) was “not detected”.

In the case of `CC(C)NCC(O)c1ccc(O)c(O)c1` (stereo not drawn) [isoproterenol], the “effect on contraction kinetics” value ([2]; withdrawn from the media) is reported as “no effect”.

For `C/C1=C\[C@H](C)C[C@H](C)OC(=O)C[C@H](c2ccc(O)cc2)NC(=O)[C@@H](Cc2c(Br)[nH]c3ccccc23)N(C)C(=O)[C@H](C)NC(=O)[C@@H](C)C1` [jasplakinolide, Jasplakinolide], the “effect on contractions (FIG. 5H legend)” value [1] was “prevented contractions”.

For `C/C1=C/C(=O)O[C@@H]2C[C@@H](CC[C@H](C)/C=C\CC1)O[C@@](O)([C@@H]1CSC(=O)N1)C2` [latrunculin B, Latrunculin B], the “effect on contractions (FIG. 5H legend)” value [1] was “prevented contractions”.

With `CC[C@H](C)[C@@H]1NC(=O)[C@H](Cc2ccc(O)cc2)NC(=O)[C@@H](N)CSSC[C@@H](C(=O)N2CCC[C@H]2C(=O)N[C@@H](CC(C)C)C(=O)NCC(N)=O)NC(=O)[C@H](CC(N)=O)NC(=O)[C@H](CCC(N)=O)NC1=O` [oxytocin] the “effect on contraction kinetics” value ([2]; withdrawn from the media) was “no effect”.

For cholera toxin, the “effect on contraction kinetics” value [2] was “no effect”.

For “collagen I: matrix protein added to change the microenvironment”, the “effect on contraction kinetics” value ([2]; added at 0 to 2 mg/mL) was “no effect”.

B1: prolactin: hormone treatment tested for evidence of lactation (protein, UniProt P01236 29-227, looked up)
Prolactin: LPICPGGAARCQVTLRDLFDRAVVLSHYIHNLSSEMFSEFDKRYTHGRGFITKAINSCHTSSLATPEDKEQAQQMNQKDFLSLIVSILRSWNEPLYHLVTEVRGMQEAPEAILSKAVEIEEQTKRLLEGMELIVSQVHPETKENEIYPVWSGLPSLQMADEESRLSAYYNLLHCLRRDSHKIDNYLKLLKCRIIHNNNC
For B1, the “organoid morphology with prolactin treatment” value ([3]; presence or absence of prolactin, FIG. 6A) was “no obvious differences; also recorded: no morphological changes” and the “sudanophilia (Sudan Black, marker of lipophilic secretions)” value ([3]; prolactin treatment, FIG. 6B) was “only evident in a single organoid”.
